The values below come from paper PMC10449418, “Adapting antibacterial display to identify serum-active macrocyclic peptide antibiotics” (PNAS Nexus, 2023).

No end group written: not given here.

Data set [1] relates to E. coli 25922. The experiment in a line: MBC in 100% human serum (HS). Type of data set: cell-based, Escherichia coli. The source says:
Minimum inhibitory concentration (MIC) and minimum bactericidal concentration (MBC) assays are standard methods used to first examine antimicrobial potential. These assays are often performed against lab strains of bacteria grown in Mueller–Hinton (MH) media which is not representative of conditions found in the human body during infection. […] W3110 is a K12-derived strain and cannot grow in HS and lacks O-antigen on its cell surface in contrast to 25922. MBCs were used instead of MICs because HS was opaque, making bacterial growth difficult to observe by sight. We chose three cationic AMPs previously discovered using SLAY and four natural cationic AMPs, each with α-helical or β-hairpin secondary structure ([18–24]) (Table S1).

Data set [2] deals with G. mellonella larvae. The experiment in a line: LD50 in G. mellonella larvae. Format: in vivo, Galleria mellonella. Conditions: single injection of a 100-mg/kg dose, death after 4 days, n = 10. The protocol:
Live G. mellonella larvae were purchased from DBDPet. Larvae appearing fully healthy (no apparent melanization) and weighing between 200 and 300 mg were used for survival assays. Larvae were first injected into their second left proleg with 10 µl of PBS or PBS containing 1 × 10^6E. coli 25922 cells grown to an OD of 0.5 and washed in PBS. Injections were performed using a Hamilton 250-µl pipet equipped with an autodispenser and 30-gauge BD needle. […] Larvae groups were then incubated at 37°C for 72 h and observed for death. Larvae were determined to be dead if they were unable to right themselves after being placed on their back. Significance was determined by comparing Kaplan–Meier survival curves to untreated using a log-rank test (n ≥ 13 per sample).

Data set [3] has as its system E. coli 25922. The experiment in a line: NPN outer membrane disruption assay. Type of data set: cell-based, Escherichia coli. Conditions: 30 min of treatment, PBS, various concentrations, n = 3. The source says:
(§1) First, we performed two fluorescent membrane disruption assays using 1-N-phenylnaphthylamine (NPN) and propidium iodide (PI). Normally the outer membrane excludes hydrophobic molecules such as NPN, but when damaged, NPN can bind hydrophobic fatty acids within the membrane and fluoresce. PI fluoresces upon DNA binding but can only gain access to the cytoplasm if both the outer and inner membranes have been permeabilized. Antibiotics tested retained antimicrobial activity under the assay conditions used (Fig. S3A).
A culture of E. coli 25922 was grown overnight in liquid media at 37°C. The following day, it was back diluted 1:25 in LB media and grown at 37°C until an OD600 of 0.5. The culture was then pelleted at 1,000 g, washed once with PBS, and resuspended to a final concentration of OD600 0.5. […] Each sample was loaded in triplicate into a 96-well optical-bottom plate and serially diluted two-fold with final volumes of 50 µl in each well. Fifty microliters of the 40 µM NPN was then added to each well, followed by 100 µl of the bacterial cell suspension. After 30 min, the plate was transferred to a BioTek Synergy LX multimode reader for fluorescent measurements. Triplicate samples were normalized to nontreated wells and presented as a mean ± 1 SD (n = 3).

The subject of data set [4] is E. coli 25922. The experiment in a line: PI uptake (outer and inner membrane permeabilization) assay. Format: cell-based, Escherichia coli. Conditions: 30 min of treatment, PBS + 50 mM glucose, 37°C, n = 3.
From the text: as §1
PI uptake was measured for E. coli 25922 as previously described ([20]). Briefly, single colonies from overnight growth on LB were inoculated into MH broth and grown to mid-log phase. Cells were then washed twice with PBS + 50 mM glucose and resuspended to an OD = 0.1 in PBS + 50 mM glucose. PI was added at a concentration of 10 µg/ml, and 50 µl of the PI cell mixture was quickly added to a preprepared 96-well plate (NUNC black-walled clear bottom plate) that contained 50 µl of various peptide concentrations. The plate was then allowed to incubate for 30 min in the dark at 37°C and was then read using the Biotek Synergy LX plate reader with the fluorescence red filter cube. Triplicate samples were normalized to nontreated wells and presented as a mean ± 1 SD (n = 3).

Data set [5] concerns E. coli 25922. The experiment in a line: MIC (growth inhibition) in MH media. Type of data set: cell-based, Escherichia coli. Conditions: 37°C, 18–24 h, examined by eye, median of three replicates.

On to “KWCFRVCYRGICYRRCR-NH2 (disulfide (positions not given here)) [Tachyplesin-1, natural β-AMP]”, for which, in data set [1], the “serum activity (MBC in HS), in words” value was “retained the most activity in HS relative to MH”.

For the compound `CC(C)C[C@H](NC(=O)[C@H](CCCNC(=N)N)NC(=O)CNC(=O)CNC(=O)[C@@H](N)CCCNC(=N)N)C(=O)N[C@H]1CSSC[C@@H](C(=O)N[C@H](C(=O)NCC(=O)N[C@@H](CCCNC(=N)N)C(N)=O)C(C)C)NC(=O)[C@H](C(C)C)NC(=O)[C@@H]2CSSC[C@H](NC(=O)[C@H](Cc3ccc(O)cc3)NC1=O)C(=O)N[C@@H](CCCNC(=N)N)C(=O)N[C@@H](CCCNC(=N)N)C(=O)N[C@@H](CCCNC(=N)N)C(=O)N[C@@H](Cc1ccccc1)C(=O)N2` [Protegrin-1], in data set [2], the “LD50 for G. mellonella larvae” value is “over 100 mg/kg”. Besides, the “NPN fluorescence (outer membrane permeation)” value in data set [3] was “strong fluorescence of both NPN and PI”. For the same compound, in data set [1], the “serum activity (MBC in HS), in words” value is reported as “retained the most activity in HS relative to MH”. Further, the “PI uptake (outer and inner membrane permeabilization)” value in data set [4] was “strong fluorescence of both NPN and PI”.

On to Kanamycin, for which the “NPN fluorescence (outer membrane permeation)” value in data set [3] is reported as “no NPN fluorescence or PI uptake”. In data set [4], the “PI uptake (outer and inner membrane permeabilization)” value is reported as “no NPN fluorescence or PI uptake”. Besides, the “Antibiotic activity against E. coli 25922: MIC” value in data set [5] was found to be 4 µg/mL.
